For 33 compounds, melting point results are on record in US8183262B2, “Pyridine derivatives as mGluR2 antagonists” (Hoffmann-La Roche Inc., priority 2007, dated 2012).

`Nc1ccc(-c2noc(-c3cc(C(F)(F)F)cc(-c4ccc(C(F)(F)F)cc4)n3)n2)cn1` [Example 238, 5-{5-[4-Trifluoromethyl-6-(4-trifluoromethyl-phenyl)-pyridin-2-yl]-[1,2,4]oxadiazol-3-yl}-pyridin-2-ylamine]: the melting point was found to be 229 °C.

In turn, `Cc1cc(-c2ccc(C(F)(F)F)cc2)cc(-c2ccnc(-c3ccc(N)nc3)n2)n1` [Example 239, 5-{4-[6-Methyl-4-(4-trifluoromethyl-phenyl)-pyridin-2-yl]-pyrimidin-2-yl}-pyridin-2-ylamine] gave a melting point of 191 °C.

The compound `Cc1cc(-c2ccc(C(F)(F)F)cc2)cc(-c2ccnc(-c3cnc(N)nc3)n2)n1` [Example 240, 4-[6-Methyl-4-(4-trifluoromethyl-phenyl)-pyridin-2-yl]-[2,5′]bipyrimidinyl-2′-ylamine] yielded a melting point of 264 °C.

Compound `Cc1cc(-c2ccc(C(F)(F)F)cc2)cc(-c2nccc(-c3ccc(N)nc3)n2)n1` [Example 241, 5-{2-[6-Methyl-4-(4-trifluoromethyl-phenyl)-pyridin-2-yl]-pyrimidin-4-yl}-pyridin-2-ylamine] displayed a melting point of 258 °C.

`Cc1cc(-c2ccc(Cl)c(Cl)c2)cc(-n2cnc(-c3ccc(N)nc3)c2)n1` [Example 246, 5-{1-[4-(3,4-Dichloro-phenyl)-6-methyl-pyridin-2-yl]-1H-imidazol-4-yl}-pyridin-2-ylamine]: the melting point stood at 245 °C.

`Cc1cc(-c2ccc(C(F)(F)F)cc2)cc(-c2cccc(-c3cncc(S(N)(=O)=O)c3)c2)n1` [Example 248, 5-{3-[6-Methyl-4-(4-trifluoromethyl-phenyl)-pyridin-2-yl]-phenyl}-pyridine-3-sulfonic acid amide] gave a melting point of more than 250 °C.

Regarding `Cc1cc(-c2ccc(Cl)c(Cl)c2)cc(-c2cccc(-c3cnc(N)nc3)c2)n1` [Example 250, 5-{3-[4-(3,4-Dichloro-phenyl)-6-methyl-pyridin-2-yl]-phenyl}-pyrimidin-2-ylamine], the melting point was found to be 188 °C.

In the case of `Cc1cc(-c2ccc(C(F)(F)F)cc2)cc(-c2nccs2)n1` [Example 251, 2-Methyl-6-thiazol-2-yl-4-(4-trifluoromethyl-phenyl)-pyridine], the melting point amounted to 103 °C.

`Cc1cc(-c2ccc(C(F)(F)F)cc2)cc(-c2ccc(-c3ccc(N)nc3)s2)n1` [Example 252, 5-{5-[6-Methyl-4-(4-trifluoromethyl-phenyl)-pyridin-2-yl]-thiophen-2-yl}-pyridin-2-ylamine] yielded a melting point of 196 °C.

Regarding `Cc1cc(-c2ccc(C(F)(F)F)cc2)cc(-c2ccc(-c3cnc(N)nc3)s2)n1` [Example 253, 5-{5-[6-Methyl-4-(4-trifluoromethyl-phenyl)-pyridin-2-yl]-thiophen-2-yl}-pyrimidin-2-ylamine], the melting point is more than 250 °C.

In the case of `Cc1cc(-c2ccc(Cl)c(Cl)c2)cc(-c2ccc(N3C=CC=CC3N)s2)n1` (stereo not drawn) [Example 254, 1-{5-[4-(3,4-Dichloro-phenyl)-6-methyl-pyridin-2-yl]-thiophen-2-yl}-pyridin-2-ylamine], the melting point worked out at 180 °C.

In the case of `Cc1cc(-c2ccc(Cl)c(Cl)c2)cc(-c2ccc(-c3cnc(N)nc3)s2)n1` [Example 255, 5-{5-[4-(3,4-Dichloro-phenyl)-6-methyl-pyridin-2-yl]-thiophen-2-yl}-pyrimidin-2-ylamine], the melting point worked out at 237 °C.

As for `Cc1cc(-c2ccc(C(F)(F)F)cc2)cc(-c2cc(-c3ccc(N)nc3)cs2)n1` [Example 256, 5-{5-[6-Methyl-4-(4-trifluoromethyl-phenyl)-pyridin-2-yl]-thiophen-3-yl}-pyridin-2-ylamine], the melting point was 175 °C.

With `Cc1cc(-c2ccc(C(F)(F)F)cc2)cc(-c2cccc(-c3cncc(S(=O)(=O)NC(C)(C)CO)c3)c2)n1` [Example 257, 5-{3-[6-Methyl-4-(4-trifluoromethyl-phenyl)-pyridin-2-yl]-phenyl}-pyridine-3-sulfonic acid (2-hydroxy-1,1-dimethyl-ethyl)-amide], the melting point is 105 °C (dec.).

For `CONS(=O)(=O)c1cccc(-c2cccc(-c3cc(-c4ccc(C(F)(F)F)cc4)cc(C)n3)c2)c1` [Example 258, 3′-[6-Methyl-4-(4-trifluoromethyl-phenyl)-pyridin-2-yl]-biphenyl-3-sulfonic acid methoxy-amide], the melting point stood at 181 °C.

Take `CCc1cc(-c2ccc(C(F)(F)F)cc2)cc(-c2cccc(-c3cnc(N)nc3)c2)n1` [Example 260, 5-{3-[6-Ethyl-4-(4-trifluoromethyl-phenyl)-pyridin-2-yl]-phenyl}-pyrimidin-2-ylamine]: the melting point is 209 °C.

With `Cc1cc(-c2ccc(C(F)(F)F)cc2)cc(-c2cccc(-c3cccc(S(=O)(=O)NC(C)(C)C)c3)n2)n1` [Example 261, N-tert-Butyl-3-[6′-methyl-4′-(4-trifluoromethyl-phenyl)-[2,2′]bipyridinyl-6-yl]-benzenesulfonamide], the melting point was determined as 183 °C.

On to `Cc1cc(-c2ccc(C(F)(F)F)cc2)cc(-c2ccnc(-c3cccc(S(=O)(=O)NC(C)(C)C)c3)n2)n1` [Example 262, N-tert-Butyl-3-{4-[6-methyl-4-(4-trifluoromethyl-phenyl)-pyridin-2-yl]-pyrimidin-2-yl}-benzenesulfonamide], for which the melting point came to 218 °C.

Consider `Cc1cc(-c2ccc(C(F)(F)F)cc2)cc(-c2nc(-c3cccc(S(=O)(=O)NC(C)(C)C)c3)cs2)n1` [Example 263, N-tert-Butyl-3-{2-[6-methyl-4-(4-trifluoromethyl-phenyl)-pyridin-2-yl]-thiazol-4-yl}-benzenesulfonamide], for which the melting point was found to be 196 °C.

Compound `CCc1cc(-c2ccc(C(F)(F)F)cc2)cc(-c2cccc(-c3ccc(N)nc3)c2)n1` [Example 264, 5-{3-[6-Ethyl-4-(4-trifluoromethyl-phenyl)-pyridin-2-yl]-phenyl}-pyridin-2-ylamine] registered a melting point of 74 °C.

Turning to `CCc1cc(-c2ccc(C(F)(F)F)cc2)cc(-c2cccc(-c3cccc(S(=O)(=O)NC(C)(C)C)c3)c2)n1` [Example 265, 3′-[6-Ethyl-4-(4-trifluoromethyl-phenyl)-pyridin-2-yl]-biphenyl-3-sulfonic acid tert-butylamide], the melting point is 169 °C.

In turn, `Cc1cc(-c2ccc(C(F)(F)F)cc2)nc(-c2cccc(-c3ccc(S(N)(=O)=O)s3)c2)c1` [Example 273, 5-{3-[4-Methyl-6-(4-trifluoromethyl-phenyl)-pyridin-2-yl]-phenyl}-thiophene-2-sulfonic acid amide] showed a melting point of 211 °C.

Turning to `Cc1cc(-c2ccc3c(c2)OCO3)cc(-c2cccc(-c3ccc(N)nc3)c2)n1` [Example 276, 5-[3-(4-Benzo[1,3]dioxol-5-yl-6-methyl-pyridin-2-yl)-phenyl]-pyridin-2-ylamine], the melting point was found to be 203 °C.

Consider `CC(C)(C)NS(=O)(=O)c1cnc(-c2cn(-c3cc(C(F)(F)F)cc(-c4ccc(C(F)(F)F)cc4)n3)cn2)s1` [Example 281, 2-{1-[4-Trifluoromethyl-6-(4-trifluoromethyl-phenyl)-pyridin-2-yl]-1H-imidazol-4-yl}-thiazole-5-sulfonic acid tert-butylamide], for which the melting point was 236 °C.

With `NS(=O)(=O)c1cccc(-c2cn(-c3cc(C(F)(F)F)cc(-c4ccc(C(F)(F)F)cc4)n3)cn2)c1` [Example 283, 3-{1-[4-Trifluoromethyl-6-(4-trifluoromethyl-phenyl)-pyridin-2-yl]-1H-imidazol-4-yl}-benzenesulfonamide], the melting point is more than 266 °C.

As to `NS(=O)(=O)c1cnc(-c2cn(-c3cc(C(F)(F)F)cc(-c4ccc(C(F)(F)F)cc4)n3)cn2)s1` [Example 284, 2-{1-[4-Trifluoromethyl-6-(4-trifluoromethyl-phenyl)-pyridin-2-yl]-1H-imidazol-4-yl}-thiazole-5-sulfonic acid amide], the melting point is more than 266 °C.

In turn, `CC(C)(C)NS(=O)(=O)c1cccc(-c2cc(-c3cc(C(F)(F)F)cc(-c4ccc(C(F)(F)F)cc4)n3)ccn2)c1` [Example 285, N-tert-Butyl-3-[4-trifluoromethyl-6-(4-trifluoromethyl-phenyl)-[2,4′]bipyridinyl-2′-yl]-benzenesulfonamide] had a melting point of 196 °C.

In the case of `NS(=O)(=O)c1cccc(-c2cc(-c3cc(C(F)(F)F)cc(-c4ccc(C(F)(F)F)cc4)n3)ccn2)c1` [Example 286, 3-[4-Trifluoromethyl-6-(4-trifluoromethyl-phenyl)-[2,4′]bipyridinyl-2′-yl]-benzenesulfonamide], the melting point was 227 °C (dec.).

Take `Cc1cc(-c2ccc(C(F)(F)F)cc2)cc(-c2ccnc(-c3cccc(S(=O)(=O)NC(C)(C)C)c3)c2)n1` [Example 287, N-tert-Butyl-3-[6-methyl-4-(4-trifluoromethyl-phenyl)-[2,4′]bipyridinyl-2′-yl]-benzenesulfonamide]: the melting point came out at 189 °C.

For the compound `Cc1cc(-c2ccc(C(F)(F)F)cc2)cc(-c2ccnc(-c3cccc(S(N)(=O)=O)c3)c2)n1` [Example 289, 3-[6-Methyl-4-(4-trifluoromethyl-phenyl)-[2,4′]bipyridinyl-2′-yl]-benzenesulfonamide], the melting point was more than 250 °C.

Turning to `NS(=O)(=O)c1cncc(-c2cn(-c3cc(C(F)(F)F)cc(-c4ccc(C(F)(F)F)cc4)n3)cn2)c1` [Example 290, 5-{1-[4-Trifluoromethyl-6-(4-trifluoromethyl-phenyl)-pyridin-2-yl]-1H-imidazol-4-yl}-pyridine-3-sulfonic acid amide], the melting point is more than 250 °C.

`CC(C)(CO)NS(=O)(=O)c1cccc(-c2cn(-c3cc(C(F)(F)F)cc(-c4ccc(C(F)(F)F)cc4)n3)cn2)c1` [Example 291, N-(2-Hydroxy-1,1-dimethyl-ethyl)-3-{1-[4-trifluoromethyl-6-(4-trifluoromethyl-phenyl)-pyridin-2-yl]-1H-imidazol-4-yl}-benzenesulfonamide]: the melting point is 150 °C (dec.).

With `Cc1cc(-c2ccc(C(F)(F)F)cc2)cc(-c2cncc(-c3cccc(S(N)(=O)=O)c3)c2)n1` [Example 295, 3-[6-Methyl-4-(4-trifluoromethyl-phenyl)-[2,3′]bipyridinyl-5′-yl]-benzenesulfonamide], the melting point was 235 °C (dec.).

Usually melting point stands for the temperature of the solid-liquid transition.
